Data: PubChem BioAssay (NCI)
Values joined by “and” are separate entries in the source; they are usually repeats but may differ in a detail not shown here. Equal entries are not always repeated.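 Tested at 5 concentrations; 48 h exposure; 96-well plates; endpoints linearly interpolated, else capped at highest concentration. GI50 = concentration required for 50% inhibition of growth. At the TGI there is no net growth.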

Key:
Assay in all cases: growth of human tumour cells (NCI), 48 h
M14 melanoma = system: M14 melanoma
SR leukemia = system: SR leukemia
SNB-75 CNS = system: SNB-75 CNS
KM12 colon = system: KM12 colon
TK-10 renal = system: TK-10 renal
OVCAR-4 ovarian = system: OVCAR-4 ovarian
SF-539 CNS = system: SF-539 CNS
A549 NSCLC = system: A549 NSCLC
RPMI-8226 leukemia = system: RPMI-8226 leukemia
PC-3 prostate = system: PC-3 prostate

SMILES	TGI (M14 melanoma) [µM]	TGI (SR leukemia) [µM]	TGI (SNB-75 CNS) [µM]	TGI (KM12 colon) [µM]	TGI (TK-10 renal) [µM]	TGI (OVCAR-4 ovarian) [µM]	TGI (SF-539 CNS)	TGI (A549 NSCLC) [µM]	TGI (RPMI-8226 leukemia) [µM]	GI50 (M14 melanoma) [µM]	GI50 (SNB-75 CNS) [µM]	GI50 (RPMI-8226 leukemia) [µM]	GI50 (KM12 colon) [µM]	GI50 (PC-3 prostate) [µM]	TGI (PC-3 prostate) [µM]	GI50 (TK-10 renal) [µM]	GI50 (OVCAR-4 ovarian) [µM]	GI50 (SF-539 CNS) [µM]	GI50 (A549 NSCLC) [µM]
COc1cccc2c(SCC(=O)Nc3ccccc3-c3ccccc3NC(=O)CSc3c4ccccc4nc4c(OC)cccc34)c3ccccc3nc12	> 100	> 100	44.5	> 100	> 100	> 100	> 100 µM	> 100	–	–	–	–	–	–	–	–	–	–	–
Cc1ccc(C)c(NC(=O)C(=O)C2C(=O)N(c3ccccc3)N=C2N)c1 (stereo unspecified)	> 100	–	> 100	> 100	> 100	> 100	> 100 µM	> 100	> 100	–	–	–	–	–	–	–	–	–	–
O=c1cc(-c2ccccc2)oc2cc(OCCCCCN3CCOCC3)cc(O)c12	> 100	–	15.2	> 100	> 100	> 100	> 100 µM	> 100	> 100	> 100	3.64	62.3	> 100	54.1	> 100	51.4	> 100	> 100	> 100
CCn1cc(C(=O)N/N=C/c2cccs2)c(=O)c2cc(F)c(N3CCNC(C)C3)c(F)c21 (stereo unspecified)	–	–	2.83	3.27	3.25	3.97	3.07 µM	3.37	–	–	1.47	–	1.73	1.45	2.84	1.72	1.96	1.62	1.8
COc1ccc(NC(=O)c2oc3cc(O)ccc3c(=O)c2C)c([N+](=O)[O-])c1	> 100	> 100	> 100	> 100	> 100	> 100	> 100 µM	> 100	–	–	–	–	–	–	–	–	–	–	–
COc1ccc(/C=C\c2cc(OC)c(OC)c(OC)c2)cc1OC(=O)CC(N)C(=O)O (stereo unspecified)	–	–	–	–	> 100	> 100	0.00577 µM and 0.0374 µM	49.5	–	0.00046	0.00286	–	0.000979	0.00227	–	36.9	9.51	0.000427	0.00304
CCCCCN(CCCCC)C(=O)[C@H](CCC(=O)O)NC(=O)c1cc2ccccc2[nH]1	> 100	–	98.4	> 100	> 100	> 100	> 100 µM	> 100	54.8	–	–	–	–	–	–	–	–	–	–
CC1=CC(C)(C)Nc2ccc(Cc3ccc4c(c3)C(C)=CC(C)(C)N4)cc21	> 100	–	> 100	72.6	92.8	> 100	89.3 µM	> 100	23.5	28.4	14.8	2.02	8.34	4.26	> 100	16.8	7.24	23.6	12.2
C[C@]12Cc3conc3C(O)=C1CC[C@@H]1C2CC[C@@]2(C)C1CC[C@]2(C)O (stereo partly specified)	36.2	–	32.4	64.9	71.9	44.4	60.6 µM	> 100	22.7	–	–	–	–	–	–	–	–	–	–
CC(=O)[CH-]C(=O)c1ccccc1.CC(=O)[CH-]C(=O)c1ccccc1.CC[C@H](/C=C/C(C)[C@H]1CCC2[C@@H]3CC=C4C[C@@H]([O-])CC[C@]4(C)C3CC[C@@]21C)C(C)C.CC[C@H](/C=C/C(C)[C@H]1CCC2[C@@H]3CC=C4C[C@@H]([O-])CC[C@]4(C)C3CC[C@@]21C)C(C)C.Cl.[Ti+4] (stereo partly specified)	> 25	–	–	> 25	> 25	> 25	> 25 µM	> 25	> 25	> 25	–	> 25	> 25	–	–	> 25	> 25	> 25	> 25
N#CC(C(=N/O)/C(=N\O)C(C#N)c1ccccc1)c1ccccc1 (stereo unspecified)	> 100	–	> 100	> 100	> 100	> 100	> 100 µM	> 100	> 100	–	–	–	–	–	–	–	–	–	–
Cc1cc(Cl)ccc1N=C1NC(=O)C(CC(=O)Nc2cccc(C)c2C)S1 (stereo unspecified)	50.9	–	48.8	> 100	> 100	69.2	43.4 µM	96.3	64.2	–	–	–	–	–	–	–	–	–	–
Nn1c(-c2cccc(Cl)c2)nc2ccccc2c1=O	> 100	–	> 100	> 100	> 100	> 100	> 100 µM	> 100	> 100	–	–	–	–	–	–	–	–	–	–
COC(=O)c1ccc(NC(=O)c2ccc(NC3=C(Cl)C(=O)N(Cc4ccccc4)C3=O)cc2)cc1	30.8	–	64.4	> 100	–	60.9	39.4 µM	29.2	16.3	17.1	28.8	3.74	25.7	13.7	26.6	–	27	20.7	15.8
COC(=O)C12C34C=CC5(CCC6(C=CC1(CC3)O6)C52C(=O)OC)O4 (stereo unspecified)	–	> 100	–	> 100	> 100	> 100	> 100 µM	> 100	–	–	–	–	–	–	–	–	–	–	–
C[C@]12CC(C=O)C(=O)C(O)=C1CC[C@@H]1C2CC[C@@]2(C)C1CC[C@]2(C)O (stereo partly specified)	35	–	45.9	74.6	99.5	34.8	35.1 µM	> 100	48.8	–	–	–	–	–	–	–	–	–	–
C=CC(=O)Nc1ccccc1CC(c1c[nH]c2ccccc12)c1c[nH]c2ccccc12	30.3	–	28.4	38.7	59.1	–	36.6 µM	56.7	50.5	–	–	–	–	–	–	–	–	–	–
CN(CCCN1C(=O)c2cccc3cc([N+](=O)[O-])cc(c23)C1=O)CCN(C)CCCN1C(=O)c2cccc3cc([N+](=O)[O-])cc(c23)C1=O	> 39.3	–	> 39.3	> 39.3	> 39.3	> 39.3	> 39.3 µM	> 39.3	> 39.3	–	–	–	–	–	–	–	–	–	–
COC(=O)c1ccc(C(=O)OC)c2nc3cc(Cl)ccc3nc12	> 100	–	> 100	> 100	> 100	> 100	> 100 µM	> 100	> 100	–	–	–	–	–	–	–	–	–	–
COc1ccc2c(CCCc3ccc(Cl)cc3Cl)c3[n+](cc2c1OC)CCc1cc2c(cc1-3)OCO2	1.88	–	–	1.48	–	1.59	–	–	–	0.485	–	–	0.362	0.279	1.24	–	0.337	–	–
Cc1ccc(-c2c3c(nn2-c2ccc(S(=O)(=O)NC(=O)NC4CCCCC4)cc2)-c2ccccc2C3)cc1	30.1	–	45.5	38.2	9.85	39.7	21.9 µM	44	7.42	14.8	20.4	2.44	13	11.1	25.3	1.7	18.2	9.48	20.2
CC(C)(C)C(=O)c1c(C(F)(F)F)n([O-])c2cc(Cl)c(Cl)cc2[n+]1=O	2.57	–	0.408	0.45	2.26	2.37	1.04 µM	2.39	0.281	0.998	0.189	0.131	0.19	1.58	3.03	0.842	1.14	0.563	0.952
CCOC(=O)C(=O)Nc1c(C)cccc1C(C)(C)C	> 100	–	> 100	> 100	> 100	> 100	> 100 µM	–	> 100	–	–	–	–	–	–	–	–	–	–
CN(C)CC1C(=O)O[C@H]2[C@H]1CC/C(COC(=O)NCc1ccc(Cn3c(=O)sn(CCCI)c3=O)cc1)=C\CC[C@@]1(C)O[C@@H]21 (stereo partly specified)	1.92	–	9.51	15.7	1.64	1.77	8.75 µM	14.4	6.88	0.893	2.73	1.75	7.71	0.251	7.32	0.862	0.843	2.57	7.17
Cc1ccc(C2[C@H]3C(=O)N(c4ccc(Cc5ccc(N6C(=O)[C@@H]7ON(c8ccccc8)C(c8ccc(C)cc8)[C@@H]7C6=O)cc5)cc4)C(=O)[C@H]3ON2c2ccccc2)cc1 (stereo partly specified)	> 100	–	> 100	> 100	–	> 100	> 100 µM	> 100	> 100	–	–	–	–	–	–	–	–	–	–
O=[N+]([O-])c1ccc(C2SCc3nc4ccccc4n32)cc1 (stereo unspecified)	–	> 100	–	> 100	> 100	> 100	> 100 µM	> 100	–	–	–	–	–	–	–	–	–	–	–
O=C1NC2C3CC(OCc4ccccc4)(OCc4ccccc4)C2OC3O1 (stereo unspecified)	> 50	–	> 50	> 50	–	–	> 50 µM	> 50	> 50	–	–	–	–	–	–	–	–	–	–
COc1cc2c3c(n([C@@H]4CCOC4)c(=O)c2cc1OC)-c1cc2c(cc1C3=O)OCO2	> 100	–	–	–	> 100	–	0.0208 µM	> 100	> 100	< 0.01	–	0.0127	–	–	–	> 100	–	< 0.01	0.0107
